Results taken from patent publication US20070078096A1, “Buffered drug formulations for transdermal electrotransport delivery” (priority 1997, published 2007).
≈ marks a conversion by molar mass, not a printed value. Read-outs that look alike come from different tables or passages of the source. Residues, ends and D or L forms follow the SMILES beside them.

Experiments:
[1] = hGH stability in HEC gel at 32° C. (RP, SEC, IE HPLC); format: physicochemical; details: for hGH remaining intact: HEC gel, 32° C., after 6 hours
Experimental: A sufficient quantity of His-Gly from BACHEM Bioscience was added to distilled water to make a 12.5 mM buffer solution having a pH of 6.75. A human growth hormone (hGH) formulation obtained from BresaGen contained growth hormone, mannitol and glycine in the following proportions: 1:5:1 (w/w). The original hGH formulation was subjected to purification (diafiltration against 12.5 mM His-Gly buffer to remove the mannitol and glycine) and the hGH concentration was adjusted to about 20 mg/ml via ultrafiltration.
Aliquots of 250 μl of the resulting hGH stock solution were placed into Eppendorf tubes, each containing 5 mg (2%) of hydroxyethyl cellulose (HEC) as a gelling agent and the samples were carefully mixed. After gelation, the samples were tested for stability at body temperature. The samples were warmed to 32° C. (ie, skin temperature) and assayed at 0, 1, 2, 3, 4, 5, and 6 hours to determine the percent of hGH remaining intact in the gel. hGH from the gels was extracted by dissolving the gel in 25 ml of His-Gly buffer. All hGH samples were analyzed by reverse-phase high performance liquid chromatography (RP), size-exclusion high performance liquid chromatography (SEC), and ion-exchange high performance liquid chromatography (IE) to determine percentage of intact hGH remaining (%LS in FIG. 9). The percent of hGH remaining was calculated by measuring the concentration of the hGH (as determined using one of three high performance liquid chromatography methods) and dividing that by the initial hGH concentration.
As a comparison, hGH stability studies were run under identical conditions to those described above, except histidine buffer was substituted for His-Gly.

[2] = pKa, pI and charge distribution of buffers
From the text: At the pI, three species coexist.
In an electric field these negative species move in the opposite direction of their positive associated counterions.
Choice of the dipeptide buffer will be on a case-by-case basis depending on the drug compound and the desired level of pH control and conductivity of the formulation.

[3] = pH stability of formulations with TMAB or SMS during electrotransport (Example 4); format: in vivo, hairless guinea pigs
From the text: The effect of the zwitterionic buffer Gly-His and His-Glu on pH stability of formulations containing small molecular weight drug-like compounds during electrotransport to hairless guinea pigs was studied. Trimethylammonium bromide (TMAB) was used as the cationic model drug and sodium methanesulfate (SMS) was used as the model anionic drug.
The electrodes were connected to a DC power source which supplied a constant level of electric current of 0.100 mA/cm^2. The anodic electrode assembly comprised a skin-contacting gel containing the aqueous solution of His-Glu 66 mM or Gly-His 45 mM and TMAB at 50 mM and 3% HEC. This formulation was separated from the silver anode by a Sybron ion exchange membrane. A gel containing 0.15 M sodium chloride (which acted as a chloride source) was placed between the silver anode and the ion exchange membrane. The cathodic electrode assembly comprised a skin-contacting gel containing the aqueous solution of His-Glu 66 mM or Gly-His 45 mM and SMS 50 mM and 3% HEC. The cathodic gel reservoir was separated from the silver chloride cathode by a Nafion ion exchange membrane. A gel containing 0.1 5M sodium chloride was placed between the cathode and the ion exchange membrane. The ionic strength of the skin-contacting gels was 60 mM.
Experiments were performed in vivo in hairless guinea pigs. Two animals were used for each condition studied. The electrotransport systems were applied to and removed from the backs of the animals. The two reservoirs were generally spaced about 5 cm apart. The application site was wiped with 70% isopropyl alcohol wipes prior to system application. Donor reservoir gel pH was measured prior to application and after removal of the systems using a HORIBA compact pH meter (Cardy).

[4] = Donor reservoir gel pH during electrotransport of DECAD (Example 3); format: in vivo, hairless guinea pigs
Experimental: The effect of the zwitterionic buffer Gly-His at pH 7.5 (pI) on the transdermal delivery of a synthetic radiolabeled decapeptide (DECAD) in the hairless guinea pig was evaluated. […] At pH 7.5 the net charge of DECAD is about +1.6.
The electrodes were connected to a DC power source which supplied a constant level of electric current of 0.100 mA/cm2. The anodic reservoir comprised a skin-contacting gel containing the aqueous solution of the buffering agent and DECAD at the indicated concentrations and 3% hydroxyethyl cellulose (HEC) as well as 10% cholestyramine, a high molecular weight resin in chloride salt form which contributes chloride ions into the donor solution without introducing mobile cations which compete with the DECAD for delivery into the animal. The chloride ions from the cholestyramine resin are provided to react with any silver ions which are generated by electrochemical oxidation of the silver foil anode, thereby removing silver cations (ie, as potentially competing with the DECAD cations) from the donor solution. The cathodic reservoir contained a 0.15 M aqueous solution of sodium chloride in an HEC gel.
Experiments were performed in vivo in hairless guinea pigs. Three animals were used for each condition studied. The electrotransport systems were applied to and removed from the flank of the animals. The two reservoirs were generally spaced about 5 cm apart. The application site was wiped with water prior to system application. […] Donor reservoir gel pH was measured prior to application and after removal of the systems using a HORIBA compact pH meter (Cardy).

[5] = In vivo iontophoresis, pH control of anodic and cathodic buffer gels (Example 2); set-up: species or system hairless guinea pigs; Ionic strength (approx.): unit not given here; details: for Anodic pH after 5 h electrotransport / Cathodic pH after 5 h electrotransport: 0.1 mA/cm^2
Experimental: In vivo iontophoresis experiments were performed using custom built electrotransport systems. […] This formulation was separated from the anode electrode by a Sybron ion exchange membrane. […] The cathode-compartment comprised a skin-contacting gel containing the aqueous solution of the buffering agent at the indicated concentration and 3% HEC. This formulation was separated from the cathode electrode by a Nafion ion exchange membrane. […] The electrodes were connected to a DC power source which supplied a constant level of electric current of 0.1 mA/cm^2. Experiments were performed in vivo in hairless guinea pigs. Three animals were used for each condition studied. The electrotransport systems were applied to and removed from the flank of the animals. The two reservoirs were generally spaced about 5 cm apart. The application site was wiped with water prior to system application. pH of the gels was measured prior to application and after removal of the systems using a HORIBA compact pH […]).

[6] = Conductivity of dipeptides at their pI; format: physicochemical
From the text: (§1) Table 1 lists conductivities and solubilities of selected dipeptides useful in the present invention, at their pI.

[7] = Solubility of dipeptides at their pI; format: physicochemical
From the text: as §1

[8] = His-Gly buffered hGH gel stored at 32° C.
[9] = Gly-His 10 mM, DECAD 5 mM, wearing time 5 h
[10] = Gly-His 30 mM, DECAD 5 mM, wearing time 5 h
[11] = Gly-His 100 mM, DECAD 0.5 mM, wearing time 5 h
[12] = Gly-His 100 mM, DECAD 5 mM, wearing time 5 h
[13] = Gly-His 100 mM, DECAD 5 mM, wearing time 24 h
[14] = Gly-His 250 mM, DECAD 5 mM, wearing time 5 h

hGH: human growth hormone formulation obtained from BresaGen, diafiltered against buffer, about 20 mg/ml in 2% HEC gel
hGH remaining intact ([1]; His-Gly buffer 12.5 mM): about 80%
degradation products [1, 8]: No extra degradation products were discovered
loss of protein through degradation [1, 8]: no significant loss of protein through degradation
hGH remaining intact ([1]; histidine buffer): approximately 50%

NCC(=O)N[C@@H](Cc1cnc[nH]1)C(=O)O [Gly-His] (H-Gly-His-OH)
pI [2]: 7.55
pka A [2]: 2.42
pI ([2]; Table 1): 7.55
pI ([2]; Table 2): 7.55
species presenting a net charge (salt form) at the pI ([2]; at pI): 30%
neutral species at the pI ([2]; at pI, net charge of zero): 70%
% salt ([2]; fraction of dipeptide carrying a net charge in aqueous solution at pH equal to pI): 22%
net charge at pH 7.5 ([2]; pH 7.5): essentially zero
Final pH ([3]; Anode, drug TMAB 50 mM): 6.9
Initial pH ([3]; Anode, drug TMAB 50 mM): 7.4
Final pH ([3]; Cathode, drug SMS 50 mM): 7.9
Initial pH ([3]; Cathode, drug SMS 50 mM): 7.5
pH control with TMAB or SMS ([3]; all experimental conditions tested (Table 7)): good pH control
Final pH [4, 9]: 7.0
Initial pH [4, 9]: 6.9
Final pH [4, 10]: 7.0
Initial pH [4, 10]: 7.1
Final pH [4, 11]: 7.2
Initial pH [4, 11]: 7.3
Final pH [4, 12]: 7.3
Initial pH [4, 12]: 7.4
Final pH [4, 13]: 7.3
Initial pH [4, 13]: 7.4
Final pH [4, 14]: 7.3
Initial pH [4, 14]: 7.4
pH control with DECAD ([4]; all experimental conditions tested (Table 6)): capable of assuring pH control
pH after 24 h electrotransport ([5]; Anode): 7.2
pH after 24 h electrotransport ([5]; Cathode, listed as Gly-His 100 mM): 7.3
pH after 24 h electrotransport ([5]; Cathode, listed as Gly-His 250 mM): 7.0
Ionic strength (approx.) ([5]; Table 3, anodic buffer gel, listed as Gly-His 30 mM): ~0.007
Ionic strength (approx.) ([5]; Table 3, anodic buffer gel, listed as Gly-His 100 mM): ~0.02
Ionic strength (approx.) ([5]; Table 3, anodic buffer gel, listed as Gly-His 250 mM): ~0.06
Ionic strength (approx.) ([5]; Table 4, cathodic buffer gel, listed as Gly-His 100 mM): ~0.02
Ionic strength (approx.) ([5]; Table 4, cathodic buffer gel, listed as Gly-His 250 mM): ~0.06
Initial pH ([5]; Table 5, Anode, listed as Gly-His 100 mM): 7.3
Initial pH ([5]; Table 5, Anode, listed as Gly-His 250 mM): 7.2
Initial pH ([5]; Table 5, Cathode, listed as Gly-His 100 mM): 7.6
Initial pH ([5]; Table 5, Cathode, listed as Gly-His 250 mM): 6.9
Anodic pH after 5 h electrotransport ([5]; anodic gel, listed as Gly-His 30 mM): 7.0
Anodic pH after 5 h electrotransport ([5]; anodic gel, listed as Gly-His 100 mM): 7.3
Anodic pH after 5 h electrotransport ([5]; anodic gel, listed as Gly-His 250 mM): 7.3
Initial pH ([5]; anodic gel, prior to application, listed as Gly-His 30 mM): 7.1
Initial pH ([5]; anodic gel, prior to application, listed as Gly-His 100 mM): 7.4
Initial pH ([5]; anodic gel, prior to application, listed as Gly-His 250 mM): 7.4
Cathodic pH after 5 h electrotransport ([5]; cathodic gel, listed as Gly-His 100 mM): 7.3
Cathodic pH after 5 h electrotransport ([5]; cathodic gel, listed as Gly-His 250 mM): 7.4
Initial pH ([5]; cathodic gel, prior to application, listed as Gly-His 100 mM): 7.6
Initial pH ([5]; cathodic gel, prior to application, listed as Gly-His 250 mM): 7.5
pH control of electrotransport formulations ([5]; electrotransport experiments in animals, at their pI, for several hours): capable of assuring pH control
pH control of a cathodic electrotransport formulation ([5]; for at least 5 hours, dipeptides at their pI): capable of assuring pH control
pH control of an anodic electrotransport formulation ([5]; for several hours, dipeptides at their pI): capable of assuring pH control
pH control of anodic and cathodic electrotransport formulations ([5]; for up to 24 hours, at their pI): capable of assuring pH control
Conductivity at 10^−2 Molar [6]: 52 μS/cm
Solubility [7]: 1000 mM (≈ 212 mg/mL)
